Tests used:
[1] = tested on: APP/PS1 HET mice; assay: Resident-Intruder (RI) test of aggression; assay type: in vivo
From the text: Behavioral aggression is a common symptom associated with Alzheimer's disease. The Resident-Intruder (RI) test is a behavioral test that can assess aggression in male mice. The two output measures are latency to attack and total number of attacks during the test. 40 Male APP/PS1 HET and 10 Male APP/PS1 WT were used as “residents”. Male C57BL/6J mice were used as intruders.
• animal age (>2 vs. >6 months for Fmr1 and APP/PS1) • housing conditions (APP/PS1 were single housed for 3 weeks ahead of testing) • lab, diet, and potentially lighting Many Other Key Variables were the Same: • route and timing of drug admin (i.p injection 30 min ahead of testing) • gender (male only) • genetic background (C57BL/6J) • 10 animals/group
Mice were screened for baseline aggression in the Resident Intruder test. Mice with attack latencies exceeding 150 seconds were excluded from the study. Mice were then balanced by latency to first attack, attack frequency, and body weight.
Gaboxadol (referred to as Test compound A) was tested at 0.5, 1, and 2 mg/kg following IP injection, 30 min pre-treat time. Mice were tested in Resident-Intruder paradigm for 5 minutes test duration.

[2] = tested on: male C57 mice; assay: Locomotor activity, male C57 mice; assay type: in vivo; conditions: male C57 mice, 1.25, 2.5 and 5 mg/Kg i.p. 30 min ahead of testing
Procedure: 10 male C57 mice were administered 0.9% NaCl, and gaboxadol: 1.25 mg/Kg, 2.5 mg/Kg and 5 mg/Kg by i.p injection 30 min ahead of testing.

[3] = tested on: male Balb/Cbyj mice; assay: Locomotor activity, male Balb/Cbyj mice; assay type: in vivo; conditions: male Balb/Cbyj mice, 1.25, 2.5 and 5 mg/Kg i.p. 30 min ahead of testing
Procedure: 10 male Balb/Cbyj mice were administered 0.9% NaCl, and gaboxadol: 1.25 mg/Kg, 2.5 mg/Kg and 5 mg/Kg by i.p injection 30 min ahead of testing.

[4] = tested on: subjects under sleep-restriction; conditions: 15 mg, cited from earlier work
[5] = tested on: healthy subjects; conditions: cited from earlier work
[6] = tested on: primary insomnia subjects; conditions: cited from earlier work
[7] = tested on: patients with primary insomnia; conditions: cited from earlier work
[8] = tested on: healthy young and elderly individuals; conditions: in vivo; cited from earlier work
[9] = tested on: cerebellar granule cells; conditions: 500 nM; cited from earlier work
[10] = tested on: Fmr1 knockout mice; conditions: in vivo; cited from earlier work
[11] = tested on: GABA; conditions: cited from earlier work
[12] = tested on: GABA-uptake; conditions: cited from earlier work
[13] = cited from earlier work
[14] = tested on: mouse model of Angelman syndrome; conditions: cited from earlier work
[15] = tested on: predisposed individuals; conditions: high peak concentrations; cited from earlier work

With Oc1noc2c1CCNC2 [gaboxadol, 4,5,6,7-tetrahydroisoxazolo(5,4-c)pyridin-3-ol] the heightened aggression ([1]; Alzheimer disease model) was “normalizes heightened aggression”, the attack frequency ([1]; HET mice, 0.5, 1, and 2 mg/kg IP, 30 min pre-treat) was “significantly attenuated” and the “latency to first attack” value ([1]; HET mice, 0.5, 1, and 2 mg/kg IP, 30 min pre-treat, compared to vehicle) was “significantly increased”. The “sedation (locomotor activity, total distance traveled)” value [2] was “not sedating”, the “sedation (locomotor activity, total distance traveled)” value [3] was “not sedating” and the “mean more SWS compared to placebo” value ([4]; over four sleep-restriction nights) was 21.8 min. The “stage 4 sleep and SWS compared with the placebo group” value ([4]; p<0.001) was “significantly more”, the “stage 1 sleep, REM sleep, and shifts to wake or stage 1 sleep relative to placebo” value [4] was “small but significant reductions” and the “TST increase compared to placebo” value ([5]; all dosages (5, 10, 15 mg), p<0.001) was “approximately 30 minutes”. The “WASO reduction compared to placebo” value ([5]; all dosages (5, 10, 15 mg), p<0.05) was 17 to 20 min, the “subjective measures of sleep quality relative to placebo” value ([5]; in vivo) was “improved” and the “SWS compared with placebo” value ([6]; 10 mg (p<0.01) and 20 mg (p<0.001)) was “increase”. For the same molecule, the WASO ([6]; 20 mg, p<0.01) was “significantly reduced”, the TST ([6]; 20 mg, p<0.05) was “significantly increased” and the NASO ([6]; both doses (10 and 20 mg), p<0.001) was “significantly reduced”. The TST ([7]; 5 mg and 15 mg, p<0.05) was “significantly improved”, the “latency to persistent sleep” value ([7]; 15 mg, p<0.05) was “significantly reduced” and the SWS ([7]; 15 mg) was “enhance”. For the same molecule, the “stage 1, stage 2, or REM sleep” value ([7]; 15 mg) was “without significantly affecting”, the WASO ([7]; statistical significance only with the 5 mg dose) was “improved” and the “NREM sleep, sleep continuity, delta activity within NREM sleep, SWS/SWA” value [8] was “increase”. For the same molecule, the REM sleep [8] was “without suppressing”, the “excitability of cerebellar granule cells” value [9] was “reduced” and the tonic holding currents [9] was “increased”. The “hyperactivity (travel and velocity)” value [10] was “reduction or dampening”, the “hypersensitivity to auditory stimuli” value [10] was “reduction” and the GABA agonist activity [11] was “very potent”. For the same molecule, the “activity as a GABA-uptake inhibitor” value [12] was “inactive”, the t max ([13]; given orally, healthy subjects) was 30 to 60 min and the “dose excreted in the urine” value ([13]; mostly unchanged) was “More than 95%”. For the same molecule, the “cerebellar dysfunction in vivo (hind paw abduction)” value ([14]; 1.25 mg/kg and 2.5 mg/kg) was “effective to rescue”, the “adverse effects (reduced time on rotarod)” value ([14]; 1.25 mg/kg) was “without adverse effects” and the adverse event [15] was “hallucinations”.
